Results published in patent publication US9435809B2, “Method of treating and reducing the risk of acute myelogenous leukemia” (Memorial Sloan-Kettering Cancer Center, priority 2011, dated 2016).
Entries after “also recorded” stand apart in the source; their conditions may differ.

How the values were obtained:
Id1, p21 and Egr1 mRNA = assay: qPCR of AML1-ETO activated target genes in Kasumi-1 cells; format: cell-based, human; conditions: 24 hours, Lys-CoA-Tat 50 μM, C646 20 μM
Description: The RNA extraction and cDNA generation procedures were described above. The reverse transcription reaction was performed for 10 min at 25° C., 50 min at 50° C., 5 min at 85° C. and 20 min at 37° C. Real-time quantitative PCR was performed using a TaqMan 7500 sequence detector system (Applied Biosystems). The thermal cycle conditions were:
50° C. for 2 min, 95° C. for 10 min to activate Amplitaq Gold DNA polymerase, denaturation at 95° C. for 15 seconds and anneal/extension at 60° C. for 1 min (45 cycles). Quantitative PCR for HPRT was performed to normalize for cDNA loading. The relative quantification of gene expression was calculated using the method […], as described by the manufacturer.

Mono-Mac-1 cells = assay: MTT growth assay of AML cell lines: Mono-Mac-1; format: cell-based; conditions: at 5 μM; MTT assay after 72 hours
Description: (§1) Cells were treated with p300 inhibitors at different concentrations in a 96-well plate. After 72 hours, 0.1 mg MTT was added to each well. The samples were incubated at 37° C. for 4 hours and the absorbance was measured at 570 nm by spectrophotometry.

NB4 cells = assay: MTT growth assay of AML cell lines: NB4; format: cell-based; conditions: at 5 μM; MTT assay after 72 hours
Description: as §1

[1] = test system: AE9a expressing mouse leukemia cells; assay: AE9a mouse AML model, leukemia cells treated ex vivo and injected; format: in vivo
Description: (§2) Leukemia cells were obtained from two AML patients with t(8;21) by Ficoll-hypaque separation. Informed consent was obtained from the patients, according to institutional (IRB) guidelines. The cell viabilities of the primary leukemia cells, Kasumi-1 cells, HL60 cells and human CD34^+ cells were assessed by triplicate counting of trypan blue dye-excluding cells under light microscopy. The cell morphology was evaluated by Wright's staining of cells prepared by cytospin centrifugation. Blast cells were isolated from the bone marrow and spleen of the mice with AE9a or MLL-AF9 driven leukemia, and treated for 12 hours with Lys-CoA-Tat or DDDD-Tat (at 50 μM), or C646 vs. C37 (at 20 μM). Female C57Bl/6 mice were sublethally irradiated with 475 cGy, and then injected with 3×10^6 treated blast cells via tail vein.
(§3) Assays were set up in triplicates and the results expressed as the mean±SD. Statistical analyses were performed using Student's t-test. Survival functions were estimated using the Kaplan-Meier method and compared by the log-rank test.

HL60 cells = assay: MTT growth assay of AML cell lines: HL60; format: cell-based; conditions: at 5 μM; MTT assay after 72 hours
Description: as §1

HEL cells = assay: MTT growth assay of AML cell lines: HEL; format: cell-based; conditions: at 5 μM; MTT assay after 72 hours
Description: as §1

histone H3 = assay: Histone H3 acetylation in Kasumi-1 cells (Western blot); format: cell-based, human; conditions: Lys-CoA-Tat 50 μM, C646 10 or 20 μM for 24 hours
From the text: (§4) Anti-p300 (Millipore or Santa Cruz), anti-Flag (Sigma), anti-HA (Santa Cruz), anti-ETO (generated in the Roeder lab or Santa Cruz), anti-AML1 (Zhao, X. et al, Genes Dev 22, 640, 2008), anti-acetylated lysine (Stressgen), anti-acetylated Histone H3 (Millipore), anti-Tubulin (Sigma), anti-TAFII250 (generated in the Roeder lab) and anti-TAF7 (generated in the Roeder lab) antibodies were used. Two anti-acetylated AML1-ETO polyclonal antibodies were generated by immunizing rabbits with the synthetic peptides (TALSPGK [acetylated] MSEA SEQ ID NO: 10 or LAGK [acetylated] LRSGDRS SEQ ID NO: 11) conjugated to KLH. The polyclonal antiserum was collected and purified using a peptide affinity column. The affinity of the antibodies against acetyl-lysine AML1-ETO was measured by dot blot assays. For the dot blot assays, 5 pmol of peptide (measured by Ellman's reagent) was spotted onto a nitrocellulose membrane. The control peptides were as follows: AML1-ETOK24 peptide (TALSPGKMSEA) (SEQ ID NO: 10) and AML1-ETOK43 peptide (LAGK LRSGDRS) (SEQ ID NO: 11).
(§5) The Flag-AE, Flag-AE-ΔNHR1 (aa245-436), Flag-AE-ΔNHR2, Flag-ETO, Flag-ETO-ΔNHR1 and Flag-ETO-ΔNHR2 cDNAs were cotransfected into 80% confluent 293T cells using the FuGene 6 reagent. After 36 hours the cells were lysed in RIPA buffer with 1 mM DTT and DNAse I 1 μg/mL and a proteinase inhibitor cocktail (Roche), and incubated on ice for 30 minutes. […]

[2] = test system: acetylated A-EK43 (AML1-ETO); assay: A-EK43 acetylation in Kasumi-1 cells (IP / Western blot); format: cell-based, human; conditions: Lys-CoA-Tat 50 μM, C646 10 or 20 μM for 24 hours
From the text: as §4, §5

[3] = test system: MLL-AF9 expressing mouse leukemia cells; assay: MLL-AF9 mouse leukemia model, leukemia cells treated ex vivo and injected; format: in vivo; conditions: cells treated ex vivo 12 hours with 50 μM Lys-CoA-Tat/DDDD-Tat or 20 μM C646/C37; sublethally irradiated recipients
Description: as §2, §3

U937 cells = assay: MTT growth assay of AML cell lines: U937; format: cell-based; conditions: at 5 μM; MTT assay after 72 hours
Description: as §1

THP-1 cells = assay: MTT growth assay of AML cell lines: THP-1; format: cell-based; conditions: at 5 μM; MTT assay after 72 hours
Description: as §1

Kasumi-1 cells = assay: Growth of Kasumi-1 cells; format: cell-based, human; conditions: Lys-CoA-Tat and DDDD-Tat 50 μM; C646 concentration not stated
Description: as §2, §1

MO-91 cells = assay: MTT growth assay of AML cell lines: MO-91; format: cell-based; conditions: at 5 μM; MTT assay after 72 hours
Description: as §1

[4] = AE9a cells treated ex vivo 12 hours, 50 μM Lys-CoA-Tat vs DDDD-Tat or 20 μM C646 vs C37

## CC1=NN(c2ccc(C(=O)O)cc2)C(=O)/C1=C\c1ccc(-c2cc(C)c(C)cc2[N+](=O)[O-])o1 [C646]
Id1, p21 and Egr1 mRNA
  expression of AML1-ETO activated target genes (Id1, p21 and Egr1 mRNA): decreased the level; also recorded: downregulated expression
Mono-Mac-1 cells
  growth of Mono-Mac-1 cells: minimal effect
NB4 cells
  growth of NB4 cells: inhibited the growth
[1]; [4]
  Percent of GFP+ C-Kit+ cells in peripheral blood: reduced the number; also recorded: significantly less
  WBC counts: lower white blood counts; also recorded: significantly lower
  platelet count (PLT): less thrombocytopenia; also recorded: higher
  red blood cell count (RBC): less anemia; also recorded: higher
[1]; cells treated ex vivo 12 hours with 50 μM Lys-CoA-Tat/DDDD-Tat or 20 μM C646/C37, sublethally irradiated recipients
  Median survival of AE9a mice: 43 days
HL60 cells
  growth of HL60 cells: minimal effect
HEL cells
  growth of HEL cells: inhibited the growth
Histone H3
  level of acetylated histone H3: decreased the level
[2]
  level of acetylated A-EK43: decreased the level; also recorded: decreased acetylation
[3]
  Median survival of MLL-AF9 mice: 28 days
U937 cells
  growth of U937 cells: inhibited the growth
THP-1 cells
  growth of THP-1 cells: minimal effect
Kasumi-1 cells
  growth of Kasumi-1 cells: as did C646
MO-91 cells
  growth of MO-91 cells: inhibited the growth
